Literature values, collected in US20170258815A1, “CORTICOSTEROID FORMULATIONS AND METHODS FOR THE TREATMENT OF JOINT PAIN IN PATIENTS WITH DIABETES” (Flexion Therapeutics, Inc., priority 2016, published 2017).

System: patients with controlled DM and OA of the knee

Structure (SMILES)	Levels of blood glucose after IA injection compared with IA hyaluronic acid
CC1(C)O[C@@H]2C[C@H]3[C@@H]4CCC5=CC(=O)C=C[C@]5(C)[C@@]4(F)[C@@H](O)C[C@]3(C)[C@]2(C(=O)CO)O1 [TCA, Triamcinolone acetonide]	significantly increased levels of blood glucose
CC(C)(C)CC(=O)OCC(=O)[C@@]12OC(C)(C)O[C@@H]1C[C@H]1[C@@H]3CCC4=CC(=O)C=C[C@]4(C)[C@@]3(F)[C@@H](O)C[C@@]12C [triamcinolone hexacetonide]	significantly increased levels of blood glucose
